The record followed here is ChEMBL document CHEMBL3272056, “Synthesis of N-hydroxythiourea” (J Med Chem, 1976).

Activity calls are given as the source filed them. The calls are words filed in the database; no cut-off is given here.

This test concerns L1210. Kind of test: Antitumor activity against mouse L1210 cells at 400 mg/kg, ip. Format: functional, organism-based. More on the design: dose 400 mg/kg.

Consider `NC(=S)NO`, for which the result was inactive.
